Each block holds one molecule with its values, some of them ahead of it.
Legend:
rat nNOS [1] = molecular target: T1, rat nNOS (Rattus norvegicus, UniProt P29476); details: cited from earlier work
bovine eNOS [2] = molecular target: T2, bovine eNOS (Bos taurus, UniProt P29473); details: nNOS over eNOS; cited from earlier work
neuronal damage = test system: neuronal damage; parameters: method as in PMID 19235180; details: intravenous administration, cerebral palsy rabbit model; cited from earlier work
murine iNOS = murine iNOS (Mus musculus, UniProt P29477); experiment: hemoglobin capture assay, iNOS
Procedure: (§1) The NOS isoforms used were recombinant enzymes overexpressed in E. coli. Rat nNOS [6], bovine eNOS [7], and murine macrophage iNOS [8], and were overexpressed and isolated as reported. The formation of nitric oxide was monitored using a hemoglobin capture assay as described previously. Briefly, a solution of nNOS or eNOS containing 10 µM L-arginine, 1.6 mM CaCl2, 11.6 µg/mL calmodulin, 100 µM DTT, 100 µM NADPH, 6.5 µM H4B, 125 µg/mL oxyhemoglobin, and varying concentrations of inhibitor in 100 mM Hepes (pH 7.4) was monitored at 30 °C. For the determination of inhibition of iNOS, no additional Ca^2+ or calmodulin were added. The assay was initiated by the addition of enzyme, and the absorption of UV light at 400 nm was recorded over one minute. As NO was evolved and coordinated to the hemoglobin, the absorption at 400 nm increased, producing a value for the enzyme velocity under these conditions. A value for the initial rate was obtained when no inhibitor was added (v0). The velocity of the enzyme (v) was then determined in the presence of varying concentrations of inhibitor, until a concentration of inhibitor that reduced the enzyme velocity to half its initial value (v/v0 ~ 0.5) was discovered. Concentrations of inhibitor above and below this value were tested and a graph of v/v0 versus inhibitor concentration ([I]) was plotted. […]

bovine eNOS [3] = molecular target: T2, bovine eNOS; experiment: hemoglobin capture assay, eNOS
Procedure: as §1

[4] = parameters: method as in printed; details: aminothiazole ring nitrogen; stated without measurement, ref not given; cited from earlier work
rat nNOS [5] = molecular target: T1, rat nNOS; experiment: hemoglobin capture assay, nNOS
Procedure: In vitro enzyme assay. The NOS isoforms used were recombinant enzymes overexpressed in E. coli. Rat nNOS [6], bovine eNOS [7], and murine macrophage iNOS [8], and were overexpressed and isolated as reported. The formation of nitric oxide was monitored using a hemoglobin capture assay as described previously. […] For the determination of inhibition of iNOS, no additional Ca^2+ or calmodulin were added. The assay was initiated by the addition of enzyme, and the absorption of UV light at 400 nm was recorded over one minute. As NO was evolved and coordinated to the hemoglobin, the absorption at 400 nm increased, producing a value for the enzyme velocity under these conditions. A value for the initial rate was obtained when no inhibitor was added (v0). The velocity of the enzyme (v) was then determined in the presence of varying concentrations of inhibitor, until a concentration of inhibitor that reduced the enzyme velocity to half its initial value (v/v0 ~ 0.5) was discovered. Concentrations of inhibitor above and below this value were tested and a graph of v/v0 versus inhibitor concentration ([I]) was plotted. Experiments were repeated at least three times and until a R^2 >0.99 was obtained. Extrapolation of this graph allowed the determination of an IC50 value. The Ki can be estimated from the IC50 if the Km for the substrate is known, using the equations below.

Compound: NCCN[C@@H]1CNC[C@@H]1Cc1cccc(N)n1 (relative stereo) [Compound 1]
nNOS inhibitory potency (rat nNOS [1]): nanomolar
selectivity over eNOS (bovine eNOS [2]): more than 1000 fold

Compound: Cc1cc(N)nc(C[C@H]2CNC[C@H]2NCCNCc2ccc(Cl)cc2)c1 (relative stereo) [Compound 2]
protection against neuronal damage (neuronal damage): significant protection against neuronal damage

Ki (murine iNOS): 50 µM
Ki (bovine eNOS [3]): 1000 µM
Ki (rat nNOS [5]): 10 µM
Compound: Nc1nc(CC2CNCC2NCCNCc2ccc(Cl)cc2)cs1 (stereo not shown) [Compound 3]
pKa of ring nitrogen [4]: ≈ 6

From paper PMC2707017, “Synthesis and enzymatic evaluation of 2- and 4-aminothiazole-based inhibitors of neuronal nitric oxide synthase” (Beilstein Journal of Organic Chemistry, 2009)
